“And” between values parts separate entries of the source, which are not always exact repeats. Equal values may be shown once. “Also recorded” adds a separate entry of the source. Marks after values point to notes of the source that are not given here. Where no end group is shown, it is not given here.
Assays:
[1] = tested on: suppressive activity of CD4+CD25+ regulatory T cells (Treg) on Teff proliferation; assay: Inhibition assay (co-culturing of Teff with Treg), [3H]-thymidine incorporation; type: cell-based, mouse; details: for Suppressive activity of Treg on Teff, kinase inhibitor treatment: activated Treg incubated with inhibitor; for Effect on ability of Treg to suppress Teff proliferation: Treg preincubated with different concentrations
Description: (xvi) Activation of CD4^+CD25^+ regulatory T cells. Purified regulatory T cells (Treg; 0.5×10^6 cells/mL) were activated in RPMI medium supplemented with L-glutamine (2 mM), 2-mercaptoethanol (5×10^−5 M), sodium pyruvate (1 mM), penicillin (100 IU/mL), streptomycin (100 μg/mL), nonessential amino acids (1 mL/100 mL), and autologous serum 2% (vol/vol) in the presence of mrIL-2 (5 ng/mL) and soluble anti-CD3 antibodies (1 ng/mL). Irradiated (2500 rad) splenocytes (1.5×10^6 cells/mL) were added to the culture. Cells were activated for 24 or 96 h. In some of the 96-h experiments, fresh dopamine was added to the culture every 24 h during activation.
(xvii) Inhibition assay (co-culturing of Teff with Treg). Naïve effector T cells (Teff; 50×10^3 cells/well) were co-cultured with decreasing numbers of activated Treg for 72 h in 96-well flat-bottomed plates in the presence of irradiated splenocytes (10^6/mL) supplemented with anti-CD3 antibodies. [^3H]-thymidine (1 μCi) was added for the last 16 h of culture. After the cells were harvested, their [^3H]-thymidine content was analyzed by the use of […].
In this experiment, we examined whether dopamine acts on Treg and alters their suppressive effect on Teff. Suppression of proliferation of Teff, assayed by [^3H]thymidine incorporation, was used as a measure of suppressive effect of Treg (Thornton and Shevach, 1998).
Shevach, 1998, 2000). Inhibition of Treg proliferation, assayed by [^3H]thymidine incorporation, can therefore be taken as a measure of the suppressive effect. We examined the ability of major neurotransmitters and neuropeptides (dopamine, norepinephrine, substance P, and serotonin) to alleviate the Treg-induced suppression of Teff in vitro. Each compound was tested at several concentrations. […] After incubating the activated Treg for 2 h with a neurotransmitter or a neuropeptide, we washed the cells and then co-cultured them with Teff.

[2] = tested on: adhesion of Treg and Teff to chondroitin sulfate proteoglycans (CSPG); assay: T cell adhesion to CSPG; type: cell-based, mouse
Description: (xiii) T cell adhesion. Adhesion of activated CD4^+CD25^+ and CD4^+CD25^− T cells to CSPG was analyzed as previously described (23). Briefly, flat-bottomed microtiter (96-well) plates were pre-coated with CSPG (1 μg/well, 40 min, 37° C.). ^51Cr-labeled T cells were left untreated or were pre-incubated (30 min, 37° C.) with dopamine or the specified agonist or antagonist (10^−5M). The cells (10^5 cells in 100 μL of RPMI containing 0.1% BSA) were then added to the CSPG-coated wells, incubated (30 min, 37° C.), and washed. Adherent cells were lysed and the resulting supernatants were removed and counted in a γ-counter. Results were expressed as the mean percentage of the total population before adhesion of bound T cells from quadruplicate wells for each experimental group.
One of the main features of T cells is their ability to migrate to tissues in need of rescue or repair [such as diseased or damaged CNS (Hickey, 1999; Flugel et al., 2001). […] We therefore incubated Treg with dopamine for 2 h and then examined their adhesion to chondroitin sulfate proteoglycans (CSPG), extracellular matrix proteins often associated with injured tissues (Jones et al., 2003).
To verify that the effect of dopamine on adhesion of Treg is exerted through the ERK1/2 pathway, we incubated Treg with the ERK1/2 signaling pathway inhibitor PD98059 before carrying out the adhesion assay. […] Since interaction of T cells with CSPG is mediated in part by the CD44 receptor (Henke et al., 1996), and in light of the known dependence of CD44 expression on the ERK signaling pathway, it was conceivable that dopamine might affect the expression of CD44 in Treg.

[3] = tested on: mice, glutamate-induced retinal ganglion cell death; assay: Intravitreal glutamate toxicity, retinal ganglion cell survival; type: in vivo, mouse; details: for Changes in neuronal survival in treated relative to untreated mice (mean±SEM): systemic injection immediately after glutamate intoxication
Description: (iii) Intravitreal glutamate injection. The right eyes of anesthetized mice were punctured with a 27-gauge needle in the upper part of the sclera, and a 10-μL Hamilton syringe with a 30-gauge needle was inserted as far as the vitreal body. A total volume of 1 μl, of L-glutamate (400 nmol) dissolved in saline was injected into the eye.
(iv) Retrograde labeling of retinal ganglion cells. Mice were anesthetized and placed in a stereotactic device. The skull was exposed and kept dry and clean. The bregma was identified and marked. The designated point of injection was at a depth of 2 mm from the brain surface, 2.92 mm behind the bregma in the anteroposterior axis and 0.5 mm lateral to the midline. A window was drilled in the scalp above the designated coordinates in the right and left hemispheres. The neurotracer dye FluoroGold (5% solution in saline; Fluorochrome, Denver, Colo.) was applied (1 μL, at a rate of 0.5 μL/min in each hemisphere) using a Hamilton syringe, and the skin over the wound was sutured.
(xxi) Assessment of mouse retinal ganglion cell survival. Mice were given a lethal dose of pentobarbitone (170 mg/kg). Their eyes were enucleated and the retinas were detached and prepared as flattened whole mounts in 4% paraformaldehyde solution. Labeled cells from 4-6 selected fields of identical size (0.7 mm^2) were counted. The selected fields were located at approximately the same distance from the optic disk (0.3 mm) to overcome the variation in RGC density as a function of distance from the optic disk. Fields were counted under the fluorescence microscope (magnification ×800) by observers blinded to the identity of the retinas. The average number of RGCs per field in each retina was calculated.
Injection of glutamate into the eyes of adult mice causes retinal ganglion cell death that is measurable 1 week after the injection (Mizrahi et al., 2002; Schori et al., 2001a; Katayama et al., 1990). We injected Balb/c mice intraperitoneally (i.p.) with the dopamine, or its specific D1-type agonist SKF-38393 (3.3 mg/kg), or its specific D1-type antagonist SCH-23390 (3 mg/kg), immediately after their exposure to glutamate toxicity. We also injected SCID Balb/c mice with SKF-38393 (3.3 mg/kg) immediately after glutamate intoxication.
Immediately after glutamate intoxication mice were systemically injected with the indicated drugs. Neuronal survival was determined ten days later (see Materials and Methods). The results are expressed by changes (in percentage) in neuronal survival in treated mice relative to untreated mice. Each value represents a mean±SEM of a group of at least 5 animals, and each experiment was performed at least twice, independently. Asterisks (***, P<0.001; **, P<0.01) indicate statistical significance of the presented data from a single experiment using a Student's T-test statistical analysis. (NT—not tested; ns—no statistical significance).

[4] = tested on: mouse solid melanoma tumor cells M2R; assay: M2R melanoma tumor development in mice; type: in vivo
Description: To verify the effect of dopamine and its related compounds on tumor growth, C57BL mice were injected with the specific D1-R agonist SKF-38393 (3.3 mg/kg) immediately after inoculation of mouse solid melanoma tumor cells M2R. The experimental group (n=10) received a single injection of SKF-38393, and a control group (n=11) was injected with PBS.
To further isolate the effect of dopamine on the immune system, C57BL mice (n=10) and SCID mice (n=8) were injected with SKF-38393 (3.3 mg/kg) immediately after injecting them with solid tumor cells M2R (FIG. 9c).

[5] = tested on: mice, glutamate-induced retinal ganglion cell death; assay: Intravitreal glutamate toxicity, retinal ganglion cell survival; type: in vivo, mouse; details: retinas excised 7 days afterwards
Treg = Treg apoptosis (propidium iodide sub-G1, annexin V, FACS); type: cell-based, mouse; details: Treg incubated with compound
Description: (viii) FACS analysis of annexin V-positive regulatory T cells. PE-stained CD25^+ cells were stained for annexin V-FITC according to the manufacturer's instructions. The cells were scored as described above, and CD25^+ lymphocytes were then gated for analysis of annexin V-positive cells.
(xv) Propidium iodide staining. Cells were fixed in cold ethanol 80% and treated with RNAse. Propidium iodide was then applied, and cell samples were assessed by FACSort.

[6] = tested on: phospho-ERK1/2 in Treg and Teff; assay: ERK1/2 phosphorylation (intracellular FACS staining, Western blot); type: cell-based, mouse; details: activation with anti-CD3 and anti-CD28 for 20 min
Description: (ix) FACS analysis of intracellular labeling of phosphorylated form of ERK. T-cell subpopulations were fixed in 1.5% formaldehyde for 10 min at room temperature, washed, resuspended with vortexing in cold 100% methanol, and incubated for 1 h at 4° C. The cells were then washed with PBS containing 1% bovine serum albumin (BSA) and resuspended in 100 μL of PBS/BSA, and 12.5 μL of anti-phosphoERK1 & 2 (BioSource) was added for 20 min at room temperature. The cells were then washed, resuspended in PBS, and analyzed by FACSCalibur (Becton-Dickinson). As a negative control we incubated the phospho-peptide for 20 min with its antibody and then added the mixture to T cells.
(xix) Western blotting. Cells were stimulated for 20 min with anti-CD3 and anti-CD28 antibodies in the presence or absence of dopamine or SKF-38393. Cell lysates were prepared using RIPA lysis buffer (50 mM Tris, pH 8; 0.1% SDS; 0.5% deoxycholate; 1% NP40; 500 mM NaCl; 10 mM MgCl2) and were then kept on ice for 10 min before being vortexed and centrifuged. Supernatants were collected and 5× sample buffer (containing 25 mM Tris pH 6.8, 2% sodium dodecyl sulfate (SDS), 10% glycerol, 0.1% bromophenol blue, 0.5 M β-mercaptoethanol) was added prior to boiling. Cell extracts were separated by SDS-PAGE (10% polyacrylamide), and blotted onto nitrocellulose. Activated ERK1/2 was detected by probing blots with a 1:30,000 dilution of monoclonal antibody. Total ERK protein was detected by using a 1:10,000 dilution of a polyclonal rabbit antibody. The blots were developed by horseradish peroxidase-conjugated anti-mouse or anti-rabbit Fab and ECL (Amersham). Signals were quantified using NIH Image 1.62.
Treg were activated for 20 min in the presence or absence of dopamine (10^−5 M), and were then subjected to intracellular phosphoprotein staining (Perez and Nolan 2002) and analyzed by flow cytometry. […] As a measure of the background nonspecific staining of the phosphorylated ERK we used a specific peptide of phospho-ERK, which competes for binding of the antibody. The intracellular staining procedure for phospho-ERK detection by FACS was validated by the use of Teff incubated with 20 μM phorbol 12-myristate 13-acetate (PMA), known to stimulate the activity of protein kinase C (PKC) (data not shown).

COc1cccc(-c2cc(=O)c3ccccc3o2)c1N [PD98059]
Suppressive activity of Treg on Teff, kinase inhibitor treatment [1]: significantly reduced the suppressive activity; also recorded: almost completely abolished their suppression | Adhesion of Treg to CSPG after ERK1/2 pathway inhibitor ([2]; Treg incubated with PD98059 before assay): significantly reduced

NCCc1c[nH]c2ccc(O)cc12 [serotonin]
Effect on ability of Treg to suppress Teff proliferation [1]: no effect

CN1CCc2cc(Cl)c(O)cc2[C@@H](c2ccccc2)C1 [SCH-23390]
Decrease in neuronal survival relative to PBS-injected mice ([3]; Balb/c, SCH-23390 3 mg/kg i.p., 3 mg/kg): 11±1.5% and 11% | Changes in neuronal survival in treated relative to untreated mice (mean±SEM) ([3]; Wild type mice): −11 ± 1.5** percentage

Oc1cc2c(cc1O)C(c1ccccc1)CNCC2 (racemic) [SKF-38393, (+/−)-1-Phenyl-2,3,4,5-tetrahydro-(1H)-3-benzazepine-7,8-diol.HC1]
Effect on suppressive activity of Treg, compound alone ([1]; 10^−5 M): reproduced the dopamine effect | Adhesion of Treg to CSPG ([2]; dopamine 10^−9-10^−5 M, concentration-dependent, agonist 10^−5 M): mimicked | Increase in neuronal survival relative to PBS-treated glutamate-injected controls ([3]; Balb/c, single i.p. injection, dopamine 0.4 mg/kg, SKF-38393 3.3 mg/kg): 19±3.2% | Effect on neuronal survival in immune-deficient mice ([3]; SCID Balb/c, 3.3 mg/kg): no effect; also recorded: lack of effect | Changes in neuronal survival in treated relative to untreated mice (mean±SEM) ([3]; SCID mice): 3 ± 1.8 (ns) percentage | Changes in neuronal survival in treated relative to untreated mice (mean±SEM) ([3]; Wild type mice): 19 ± 3.2** percentage | Tumor development ([4]; C57BL mice, single injection 3.3 mg/kg immediately after M2R inoculation): significantly attenuated | Tumor development ([4]; SCID mice, 3.3 mg/kg immediately after M2R inoculation): No effect | Neuronal survival compared to vehicle-injected mice ([5]; 0.33 mg/kg i.v.): neuroprotective trend, however not significant | Neuronal survival compared to vehicle-injected mice ([5]; 3.3 mg/kg i.v.): significant increase in neuronal survival | Apoptosis, annexin V staining for phosphatidylserine (Treg): No increase in annexin V-labeled cells | Phospho-ERK1/2 in activated Treg, Western blot [6]: reduced

NC[C@H](O)c1ccc(O)c(O)c1 [norepinephrine]
Effect on suppressive activity of Treg ([1]; 10^−5 or 10^−7 M for 2 h after 24 h activation): did not affect the suppressive activity of Treg | Effect on ability of Treg to suppress Teff proliferation [1]: no effect

O=c1c(-c2ccc(O)cc2)coc2cc(O)cc(O)c12 [genistein, 4′,5,7-trihydroxy isoflavone]
Suppressive activity of Treg on Teff, kinase inhibitor treatment [1]: blocked the suppressive activity | Proliferation of Treg themselves ([1]; in the presence of genistein): underwent proliferation themselves | Proliferation of Teff ([1]; same concentration as used on Treg): had no effect

substance P: a pain- and stress-related neurotransmitter (neuropeptide) (RPKPQQFFGLM-NH2; UniProt P20366 58-68, looked up)
Effect on ability of Treg to suppress Teff proliferation [1]: no effect

Reference: patent US20100168085A1, “Dopamine and agonists and antagonists thereof for modulation of suppressive activity of CD4+CD25+ regulatory T cells” (YESA RESEARCH AND DEVELOPMENT CO. LTD. at the Weizmann …, priority 2003, published 2010)
